Data on 29 compounds can be found in patent US7473790B2 (Pfizer Inc., priority 2003, dated 2009).

pIC50: −log10 of the molar value.

In this assay the target is T1, HCV polymerase (Hepatitis C virus genotype 1b, UniProt P26663).
T1 construct: 2.5 pmoles (0.15 μg) HCV polymerase protein in a final volume of 75 μL
T1 sequence (P26663 2420-3010): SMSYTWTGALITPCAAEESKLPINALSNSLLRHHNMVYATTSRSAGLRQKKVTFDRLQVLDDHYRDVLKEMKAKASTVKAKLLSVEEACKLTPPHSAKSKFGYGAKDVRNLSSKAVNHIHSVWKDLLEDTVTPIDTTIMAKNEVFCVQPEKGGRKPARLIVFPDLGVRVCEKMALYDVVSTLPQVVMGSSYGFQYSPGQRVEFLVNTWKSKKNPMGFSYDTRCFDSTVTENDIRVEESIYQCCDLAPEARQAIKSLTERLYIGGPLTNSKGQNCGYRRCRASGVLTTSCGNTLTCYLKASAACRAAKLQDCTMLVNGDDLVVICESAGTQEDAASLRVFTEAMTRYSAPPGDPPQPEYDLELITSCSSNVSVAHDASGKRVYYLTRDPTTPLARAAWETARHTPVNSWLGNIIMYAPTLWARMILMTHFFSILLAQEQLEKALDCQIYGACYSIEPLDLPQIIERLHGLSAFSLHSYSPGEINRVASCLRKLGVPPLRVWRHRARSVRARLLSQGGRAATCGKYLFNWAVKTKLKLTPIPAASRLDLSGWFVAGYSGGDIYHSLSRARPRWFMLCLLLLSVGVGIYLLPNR
Description: HCV polymerase primer/template-directed transcription assay (32P-GTP incorporation, filter binding). To be noted: recombinant HCV polymerase; 30 minutes at 30° C.; concentration giving 50% inhibition of polymerase-directed transcription; read-out: IC50. The format is biochemical. Put shortly: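 IC50s come from triplicate cpm, refit with an enzyme-concentration (30 nM) correction when under 200 nM. Reactions ran 30 min at 30° C in Tris pH 7.2 with MgCl2, 1 μM GTP spiked with α-32P-GTP, biotin-dG12 primer and poly(rC)300 template, with 1% DMSO. Incorporated label was collected on DE filtermats and counted.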
In the case of `O=C1CC(=O)OC(CCc2ccc(O)c(Cl)c2)(C2CCCC2)C1` (centres unmarked) [A(95), 6-[2-(3-Chloro-4-hydroxy-phenyl)-ethyl]-6-cyclopentyl-dihydro-pyran-2,4-dione], the pIC50 is 5.68. Next, `CCc1cc(CCC2(C3CCCC3)CC(=O)CC(=O)O2)ccc1OC` (centres unmarked) [A(96), 6-Cyclopentyl-6-[2-(3-ethyl-4-methoxy-phenyl)-ethyl]-dihydro-pyran-2,4-dione]: 5.49.

In the case of `CCc1nc(C)c(CC2=C(O)CC(CCc3ccc(C(C)(C)C#N)c(F)c3)(C3CCCC3)OC2=O)[nH]1` (centres unmarked) [A(97), 2-[4-(2-{2-cyclopentyl-5-[(2-ethyl-4-methyl-1H-imidazol-5-yl)methyl]-4-hydroxy-6-oxo-3,6-dihydro-2H-pyran-2-yl}ethyl)-2-fluorophenyl]-2-methylpropanenitrile], the pIC50 is 6.54.

With `Cn1c(CC2=C(O)CC(CCc3ccc(C(C)(C)C#N)c(F)c3)(C3CCCC3)OC2=O)nc2cc(Cl)ccc21` (centres unmarked) [A(98), 2-[4-(2-{5-[(5-chloro-1-methyl-1H-benzimidazol-2-yl)methyl]-2-cyclopentyl-4-hydroxy-6-oxo-3,6-dihydro-2H-pyran-2-yl}ethyl)-2-fluorophenyl]-2-methylpropanenitrile], the pIC50 was 8.00. The result for `CC(C)(C#N)c1ccc(CCC2(C3CCCC3)CC(O)=C(Cc3cc[nH]c(=O)c3)C(=O)O2)cc1F` (centres unmarked) [A(99), 2-[4-(2-{2-cyclopentyl-4-hydroxy-6-oxo-5-[(2-oxo-1,2-dihydropyridin-4-yl)methyl]-3,6-dihydro-2H-pyran-2-yl}ethyl)-2-fluorophenyl]-2-methylpropanenitrile] reads 7.77; that for `COc1cccc(CC2=C(O)CC(CCc3ccc(C(C)(C)C#N)c(F)c3)(C3CCCC3)OC2=O)c1` (centres unmarked) [A(100), 2-(4-{2-[2-cyclopentyl-4-hydroxy-5-(3-methoxybenzyl)-6-oxo-3,6-dihydro-2H-pyran-2-yl]ethyl}-2-fluorophenyl)-2-methylpropanenitrile], 7.06; that for `CC(C)(C#N)c1ccc(CCC2(C3CCCC3)CC(O)=C(Cc3cccc(S(C)(=O)=O)c3)C(=O)O2)cc1F` (centres unmarked) [A(101), 2-[4-(2-{2-cyclopentyl-4-hydroxy-5-[3-(methylsulfonyl)benzyl]-6-oxo-3,6-dihydro-2H-pyran-2-yl}ethyl)-2-fluorophenyl]-2-methylpropanenitrile], 7.18.

Turning to `Cn1cc(Cl)c(CC2=C(O)CC(CCc3ccc(C(C)(C)C#N)c(F)c3)(C3CCCC3)OC2=O)n1` (centres unmarked) [A(102), 2-[4-(2-{5-[(4-chloro-1-methyl-1H-pyrazol-3-yl)methyl]-2-cyclopentyl-4-hydroxy-6-oxo-3,6-dihydro-2H-pyran-2-yl}ethyl)-2-fluorophenyl]-2-methylpropanenitrile], the pIC50 is 8.30. Next, `CC(C)(C#N)c1ccc(CCC2(C3CCCC3)CC(O)=C(Cc3cn4ccccc4n3)C(=O)O2)cc1F` (centres unmarked) [A(103), 2-(4-{2-[2-cyclopentyl-4-hydroxy-5-(imidazo[1,2-a]pyridin-2-ylmethyl)-6-oxo-3,6-dihydro-2H-pyran-2-yl]ethyl}-2-fluorophenyl)-2-methylpropanenitrile]: 6.74; `Cc1nc[nH]c1CC1C(=O)CC(CCc2ccc(C(C)(C)C#N)c(F)c2)(C2CCCC2)OC1=O` (centres unmarked) [A(107), 2-(4-{2-[2-Cyclopentyl-5-(5-methyl-3H-imidazol-4-ylmethyl)-4,6-dioxo-tetrahydro-pyran-2-yl]-ethyl}-2-fluoro-phenyl)-2-methyl-propionitrile]: 6.44. The result for `CC(C)(C#N)c1ccc(CCC2(C3CCCC3)CC(=O)C(Cc3nc4ncc(Cl)cn4n3)C(=O)O2)cc1F` (centres unmarked) [A(111), 2-(4-{2-[5-(6-Chloro-[1,2,4]triazolo[1,5-a]pyrimidin-2-ylmethyl)-2-cyclopentyl-4,6-dioxo-tetrahydro-pyran-2-yl]-ethyl}-2-fluoro-phenyl)-2-methyl-propionitrile] reads 8.70; that for `CCC(C#N)(CC)c1ccc(CCC2(C3CCCC3)CC(=O)C(Cc3nc4nc(C)cc(C)n4n3)C(=O)O2)cc1F` (centres unmarked) [A(112), 2-(4-{2-[2-Cyclopentyl-5-(5,7-dimethyl-[1,2,4]triazolo[1,5-a]pyrimidin-2-ylmethyl)-4,6-dioxo-tetrahydro-pyran-2-yl]-ethyl}-2-fluoro-phenyl)-2-ethyl-butyronitrile], 8.22; that for `Cc1cnc2nc(CC3C(=O)CC(CCc4ccc(C5(C#N)CC5)c(F)c4)(C4CCCC4)OC3=O)nn2c1` (centres unmarked) [A(113), 1-(4-{2-[2-Cyclopentyl-5-(6-methyl-[1,2,4]triazolo[1,5-a]pyrimidin-2-ylmethyl)-4,6-dioxo-tetrahydro-pyran-2-yl]-ethyl}-2-fluoro-phenyl)-cyclopropanecarbonitrile], 8.10. Next, `N#CC1(c2ccc(CCC3(C4CCCC4)CC(=O)C(Cc4nc5ncccn5n4)C(=O)O3)cc2F)CC1` (centres unmarked) [A(114), 1-{4-[2-(2-Cyclopentyl-4,6-dioxo-5-[1,2,4]triazolo[1,5-a]pyrimidin-2-ylmethyl-tetrahydro-pyran-2-yl)-ethyl]-2-fluoro-phenyl}-cyclopropanecarbonitrile]: 8.00; `N#CC1(c2ccc(CCC3(C4CCCC4)CC(=O)C(Cc4nc5ncc(Cl)cn5n4)C(=O)O3)cc2F)CC1` (centres unmarked) [A(115), 1-(4-{2-[5-(6-Chloro-[1,2,4]triazolo[1,5-a]pyrimidin-2-ylmethyl)-2-cyclopentyl-4,6-dioxo-tetrahydro-pyran-2-yl]-ethyl}-2-fluoro-phenyl)-cyclopropanecarbonitrile]: 8.30. On to `Cc1cc(C)n2nc(CC3=C(O)CC(CCc4ccc(CCO)c(F)c4)(C4CCCC4)OC3=O)nc2n1` (centres unmarked) [A(119), 6-Cyclopentyl-3-(5,7-dimethyl-[1,2,4]triazolo[1,5-a]pyrimidin-2-ylmethyl)-6-{2-[3-fluoro-4-(2-hydroxy-ethyl)-phenyl]-ethyl}-4-hydroxy-5,6-dihydro-pyran-2-one], for which the pIC50 was 5.92. Regarding `O=C1CC(=O)OC(CCc2ccc(CCO)c(F)c2)(C2CCCC2)C1` (centres unmarked) [A(120)], the pIC50 is 4.89. In the case of `CC(C)(CO)c1ccc(CCC2(C3CCCC3)CC(=O)CC(=O)O2)cc1F` (centres unmarked) [A(121), 6-Cyclopentyl-6-{2-[3-fluoro-4-(2-hydroxy-1,1-dimethyl-ethyl)-phenyl]-ethyl}-dihydro-pyran-2,4-dione], the pIC50 was 5.89. Next, `O=C1CC(=O)OC(CCc2cc(F)cc(F)c2)(C2CCCC2)C1` (centres unmarked) [A(122), 6-Cyclopentyl-6-[2-(3,5-difluoro-phenyl)-ethyl]-dihydro-pyran-2,4-dione]: 4.51. The result for `CCc1cc(CCC2(C3CCCC3)CC(O)=C(Cc3nc4nc(C)cc(C)n4n3)C(=O)O2)cc(F)c1O` (centres unmarked) [A(123), 6-Cyclopentyl-3-(5,7-dimethyl-[1,2,4]triazolo[1,5-a]pyrimidin-2-ylmethyl)-6-[2-(3-ethyl-5-fluoro-4-hydroxy-phenyl)-ethyl]-4-hydroxy-5,6-dihydro-pyran-2-one] reads 7.92; that for `CCc1cc(CCC2(C3CCCC3)CC(=O)CC(=O)O2)cc(F)c1O` (centres unmarked) [A(124), 6-Cyclopentyl-6-[2-(3-ethyl-5-fluoro-4-hydroxy-phenyl)-ethyl]-dihydro-pyran-2,4-dione], 6.46. Next, `CCc1cc(CCC2(C3CCCC3)CC(O)=C(Cc3nc4ncc(C)cn4n3)C(=O)O2)cc(F)c1O` (centres unmarked) [A(125), 6-Cyclopentyl-6-[2-(3-ethyl-5-fluoro-4-hydroxy-phenyl)-ethyl]-4-hydroxy-3-(6-methyl-[1,2,4]triazolo[1,5-a]pyrimidin-2-ylmethyl)-5,6-dihydro-pyran-2-one]: 7.96; `CCc1cc(CCC2(C3CCCC3)CC(O)=C(Cc3nc4ncc(C)cn4n3)C(=O)O2)ccc1O` (centres unmarked) [A(126), 6-Cyclopentyl-6-[2-(3-ethyl-4-hydroxy-phenyl)-ethyl]-4-hydroxy-3-(6-methyl-[1,2,4]triazolo[1,5-a]pyrimidin-2-ylmethyl)-5,6-dihydro-pyran-2-one]: 8.05. Take `CCc1cc(CCC2(C3CCCC3)CC(O)=C(Cc3nc4ncc(Cl)cn4n3)C(=O)O2)ccc1O` (centres unmarked) [A(127), 3-(6-Chloro-[1,2,4]triazolo[1,5-a]pyrimidin-2-ylmethyl)-6-cyclopentyl-6-[2-(3-ethyl-4-hydroxy-phenyl)-ethyl]-4-hydroxy-5,6-dihydro-pyran-2-one]: the pIC50 was 8.30. The result for `CCc1cc(CCC2(C3CCCC3)CC(=O)CC(=O)O2)ccc1OCCO` (centres unmarked) [A(128), 6-Cyclopentyl-6-{2-[3-ethyl-4-(2-hydroxy-ethoxy)-phenyl]-ethyl}-dihydro-pyran-2,4-dione] reads 6.31; that for `O=C1CC(=O)OC(CCc2ccc(O)c(F)c2)(C2CCCC2)C1` (centres unmarked) [A(129), 6-Cyclopentyl-6-[2-(3-fluoro-4-hydroxy-phenyl)-ethyl]-dihydro-pyran-2,4-dione], 5.05; that for `COc1ccc(CCC2(C3CCCC3)CC(=O)CC(=O)O2)cc1C1CC1` (centres unmarked) [A(130), 6-Cyclopentyl-6-[2-(3-cyclopropyl-4-methoxy-phenyl)-ethyl]-dihydro-pyran-2,4-dione], 5.89. Next, `Cc1cc(C)n2nc(CC3=C(O)CC(CCc4ccc(N(C)S(C)(=O)=O)c(F)c4)(C4CCCC4)OC3=O)nc2n1` (centres unmarked) [A(131), 6-cyclopentyl-3-[(5,7-dimethyl[1,2,4]triazolo[1,5-a]pyrimidin-2-yl)methyl]-6-[2-(3-fluoro-4-{methyl[methyl(dimethylene)-I^6-sulfanyl]amino}phenyl)ethyl]-4-hydroxy-5,6-dihydro-2H-pyran-2-one]: 6.86; `CN(c1ccc(CCC2(C3CCCC3)CC(=O)CC(=O)O2)cc1F)S(C)(=O)=O` (centres unmarked) [A(132), 6-cyclopentyl-6-[2-(3-fluoro-4-{methyl[methyl(dimethylene)-6-sulfanyl]amino}phenyl)ethyl]dihydro-2H-pyran-2,4(3H)-dione]: 4.89.

The term pIC50 denotes the negative decadic logarithm of the IC50, by convention in mol/L.
